PubChem BioAssay AID2060882 (Molecular Pharmacology Branch, DTP, NCI, 2025)

System: 898857-211-R-J1-PDC complex spheroids, growth % test/control
Test: Anticancer human tumor 898857-211-R-J1-PDC patient-derived melanoma cell line growth inhibition [RAS]
Conditions: for IC50: curve of first compound; for viability, T/C: stronger effect = lower value
Excerpt: RAS pathway inhibitors in Combinations in Complex Spheroids
A high-throughput screen of multi-cell type tumor spheroids was designed to identify active combinations of RAS pathway inhibitors and targeted small molecules. Complex spheroids include a stromal component modeled by human endothelial cells (HUVEC) and fibroblasts modeled by human mesenchymal stem cells (MSCs). The concentration ranges selected for each drug and investigational agent were based upon clinically achievable concentrations if the clinical Cmax of the agent was known.
Compounds. The drugs and investigational agents: abemaciclib (NSC768073), cobimetinib (NSC768068), divarasib (GDC6063, NSC841802), docetaxel (NSC628503), GDC-1971 (RLY-1971, NSC841576), gemcitabine (NSC613327), inavolisib (NSC800729), ipatasertib (NSC767898), KB-0742 (NSC834161), MRTX-1133 (NSC836407), osimertinib (NSC779217), RMC-4630 (NSC839698), RMC-6236 (NSC851965), RMC-6291 (NSC852671), Ro-3306 (NSC812927), sapanisertib (NSC764658), SN-38 (NSC673596), staurosporine (NSC755774), SY5609 (NSC837396), and tovorafenib (DAY101, NSC766906), were obtained from the National Cancer Institute (NCI) Developmental Therapeutics Program Chemical Repository. The FDA-approved anticancer drug set is available from the NCI Developmental Therapeutics Program. […] The stock solutions were prepared in dimethyl sulfoxide (DMSO, Sigma-Aldrich, St. Louis, MO, cat. D2650) at 800-fold the tested concentration and stored at -70 degrees C prior to their use. All drugs and investigational agents were tested over a range starting from a high concentration at or near the clinical Cmax and decreasing in half-log increments. If the clinical Cmax for an agent had not been determined, the highest concentration tested was 10 microM.
Cell Culture. All cells were maintained in an incubator at 37 degrees C and 5% CO2 with 95% humidity. The PDC lines were cultured according to standard operating procedures established by the NCI PDMR. All PDCs were thawed and cultured in Matrigel-coated flasks prepared with a working solution of 1X Ham's F-12 nutrient mix, without supplementation (Invitrogen, Waltham, MA, cat. 11765054), 100 U/mL penicillin-streptomycin (Invitrogen, cat. 15140122), and 2.5% Matrigel (Corning Inc., Corning, NY, cat. 354248) for the first three passages. The 362531-283-R-J2-PDC and 782815-120-R-J1-PDC lines were cultured in 6C/Colon 1B media, which includes advanced DMEM/F-12 (Thermo Fisher Scientific, cat. 12634028), 10 mM HEPES (Thermo Fisher Scientific, cat. 15630080), 1X GlutaMAX supplement (Thermo Fisher Scientific, cat. 35050061), 0.1 mg/mL primocin (InvivoGen, San Diego, CA, cat. ant-pm-2), 10% defined fetal bovine serum, heat inactivated (HyClone Laboratories Inc., Logan, UT, cat. SH30070.03HI), 50% L-WRN conditioned media (ATCC, cat. CRL-3276), 1.25 mM N-Acetyl-L-cysteine (Sigma-Aldrich, cat. A9165), 10 mM nicotinamide (Sigma-Aldrich, cat. N0636), 1X B-27 supplement (Thermo Fisher Scientific, cat. 17504044), 1X N-2 supplement (Thermo Fisher Scientific, cat. 17502048), 50 ng/mL human EGF (Thermo Fisher Scientific, cat. PHG0311), and 10 microM Y-27632 dihydrochloride (Tocris Bioscience, cat. 1254). The K12877-001-R-J1-PDC line was cultured in 6I media, which includes all 6C/Colon 1B media plus 10 ng/mL human FGF-10 (PeproTech, cat. 100-26), 1 ng/mL human FGF-2 (PeproTech, cat. 100-18B), 1 µM prostaglandin E2 (Tocris Bioscience, cat. 2296), […] hydrocortisone (Sigma-Aldrich, cat. H4001), and […] bovine insulin (Sigma-Aldrich, cat. I6634). The K86415-001-R-J1-PDC line was cultured in 6D media, which includes all 6C/Colon 1B media components minus the L-WRN conditioned media. The 485176-168-R4-J1-PDC was cultured in PANC media, which includes all 6C/Colon 1B media plus 100 ng/mL human FGF-10 (PeproTech, cat. 100-26), 500 nM SB-431542 (Selleckchem, cat. S1067), and 10 nM gastrin (Tocris Bioscience, cat. 3006). […]
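Further: spheroids exposed to compound for seven days before readout.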
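Wherever viability, T/C is given: 100% = DMSO vehicle control wells.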

C=CC(=O)Nc1cc(Nc2nccc(-c3cn(C)c4ccccc34)n2)c(OC)cc1N(C)CCN(C)C + C#Cc1c(F)ccc2cc(O)cc(-c3ncc4c(N5CC6CCC(C5)N6)nc(OCC56CCCN5CC(F)C6)nc4c3F)c12
IC50 (second compound 0.0316 µM): > 1000 nM | IC50 (second compound 0.1 µM): > 1000 nM | IC50 (second compound 0.316 µM): > 1000 nM | IC50 (second compound 1 µM): > 1000 nM | IC50 (second compound 3.16 µM): 778 nM | IC50 (second compound 10 µM): 24 nM | viability, T/C (second compound 0.0316 µM, first compound 0.00316 µM): 103% | viability, T/C (second compound 0.0316 µM, first compound 0.01 µM): 92.3% | viability, T/C (second compound 0.0316 µM, first compound 0.0316 µM): 103% | viability, T/C (second compound 0.0316 µM, first compound 0.1 µM): 100% | viability, T/C (second compound 0.0316 µM, first compound 0.316 µM): 85.4% | viability, T/C (second compound 0.0316 µM, first compound 1 µM): 65.7% | viability, T/C (second compound 0.1 µM, first compound 0.00316 µM): 108% | viability, T/C (second compound 0.1 µM, first compound 0.01 µM): 105% | viability, T/C (second compound 0.1 µM, first compound 0.0316 µM): 107% | viability, T/C (second compound 0.1 µM, first compound 0.1 µM): 98.6% | viability, T/C (second compound 0.1 µM, first compound 0.316 µM): 94.7% | viability, T/C (second compound 0.1 µM, first compound 1 µM): 62.1% | viability, T/C (second compound 0.316 µM, first compound 0.00316 µM): 113% | viability, T/C (second compound 0.316 µM, first compound 0.01 µM): 101% | viability, T/C (second compound 0.316 µM, first compound 0.0316 µM): 111% | viability, T/C (second compound 0.316 µM, first compound 0.1 µM): 96.2% | viability, T/C (second compound 0.316 µM, first compound 0.316 µM): 85.8% | viability, T/C (second compound 0.316 µM, first compound 1 µM): 49.9% | viability, T/C (second compound 1 µM, first compound 0.00316 µM): 109% | viability, T/C (second compound 1 µM, first compound 0.01 µM): 95.8% | viability, T/C (second compound 1 µM, first compound 0.0316 µM): 109% | viability, T/C (second compound 1 µM, first compound 0.1 µM): 97.6% | viability, T/C (second compound 1 µM, first compound 0.316 µM): 93.6% | viability, T/C (second compound 1 µM, first compound 1 µM): 54.5% | viability, T/C (second compound 3.16 µM, first compound 0.00316 µM): 109% | viability, T/C (second compound 3.16 µM, first compound 0.01 µM): 105% | viability, T/C (second compound 3.16 µM, first compound 0.0316 µM): 102% | viability, T/C (second compound 3.16 µM, first compound 0.1 µM): 105% | viability, T/C (second compound 3.16 µM, first compound 0.316 µM): 87.6% | viability, T/C (second compound 3.16 µM, first compound 1 µM): 39% | viability, T/C (second compound 10 µM, first compound 0.00316 µM): 65.7% | viability, T/C (second compound 10 µM, first compound 0.01 µM): 48.1% | viability, T/C (second compound 10 µM, first compound 0.0316 µM): 45.1% | viability, T/C (second compound 10 µM, first compound 0.1 µM): 45.5% | viability, T/C (second compound 10 µM, first compound 0.316 µM): 19.9% | viability, T/C (second compound 10 µM, first compound 1 µM): 0.87%
